Tested on: E. Coli (ATCC 25922)
Experiment: Photodynamic disinfection kill models (planktonic culture and biofilm)
Assay type: cell-based
Settings: 670 nm laser illumination for 60 seconds
Experimental: A 0.01% (v/v) aqueous solution of methylene blue was reduced substantially entirely to the reduced state using ascorbic acid. […] The formulation was then tested for antibacterial efficacy against E. Coli (ATCC® 25922™) using two established photodynamic disinfection kill models (planktonic culture and biofilm) with a 670 nm laser energy source to provide desired illumination for 60 seconds. […] FIG. 2 is a bar graph showing the eradication of E. coli expressed in log^10 reduction in bacterial counts for the various samples used in the experiment. […]

`O=C1O[C@H]([C@@H](O)CO)C(O)=C1O` [ascorbic acid] was tested, and the “reduction in bacterial counts (viable count) of E. coli” value was “did not itself demonstrate any antibacterial effects”.

From patent US20090093470A1, “PHOTODYNAMIC THERAPY PROCESS AND PHOTOSENSITIZER COMPOSITIONS THEREFOR” (Ondine International, Ltd., priority 2007, published 2009)
